The text below walks through data of PubChem BioAssay (NCI).

Structures are written as SMILES.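 Step 1: Grow cells in 96-well plates. Step 2: Expose to compound for 48 hours at 5 concentrations. Step 3: Interpolate endpoints linearly; if unreached, use highest concentration. GI50 is the concentration that inhibits growth by half. TGI: total growth inhibition.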

Test systems include UO-31 renal; SN12C renal; EKVX NSCLC; 786-0 renal; COLO 205 colon; SK-MEL-2 melanoma; RXF 393 renal; A498 renal; KM20L2 colon; DMS 114 small cell lung; LXFL 529 NSCLC; M19-MEL melanoma; SNB-78 CNS.
Holding throughout (assay): growth of human tumour cells (NCI), 48 h

Turning to `COc1ccc([N+](=O)[O-])cc1[I+]c1cc([N+](=O)[O-])ccc1OC`, the TGI with UO-31 renal, with SN12C renal, with EKVX NSCLC, in the test on 786-0 renal, in the test on COLO 205 colon and in the test with SK-MEL-2 melanoma was more than 100 µM each time. Moreover, the TGI in the test with RXF 393 renal and with A498 renal was more than 100 µM each time.
In the case of `O=C(Nc1ccc(-n2cc(-c3ccncc3)c(-c3ccc(O)c(Cl)c3)n2)cc1)c1ccc(Cl)c(Cl)c1`, the GI50 in the test on UO-31 renal was 1.8 µM; with SN12C renal, 2.95 µM; in the test on EKVX NSCLC, 30.5 µM; in the test on COLO 205 colon, more than 32.5 µM; with SK-MEL-2 melanoma, 0.932 µM; in the test on RXF 393 renal it was 0.49 µM. In the test with A498 renal, the GI50 was more than 32.5 µM. For the same molecule, the TGI in the test with UO-31 renal is more than 32.5 µM; with SN12C renal, more than 32.5 µM; with EKVX NSCLC it was more than 32.5 µM; in the test with COLO 205 colon, more than 32.5 µM; with SK-MEL-2 melanoma it was 7.41 µM; in the test with RXF 393 renal, 1.1 µM. The molecule further displayed a TGI with A498 renal of more than 32.5 µM.
Take `CCCCC[C@H]1CC=CC(=O)O1`: the TGI turned out to be 24 µM in the test on UO-31 renal; 23.8 µM in the test with SN12C renal; 56.7 µM in the test on EKVX NSCLC; 13.3 µM in the test on 786-0 renal; 15.1 µM in the test with COLO 205 colon; 19.1 µM in the test with SK-MEL-2 melanoma. In addition, the values for the TGI with RXF 393 renal and in the test on A498 renal were 9.16 µM and 9.03 µM, respectively.
Turning to `COc1cccc(/C=N/[N-]C(N)=O)c1[O-].[OH3+].[Zn+2]`, the TGI in the test on UO-31 renal, with SN12C renal, in the test with EKVX NSCLC, in the test on 786-0 renal, in the test with COLO 205 colon and in the test with SK-MEL-2 melanoma was more than 100 µM each time. Further, the TGI in the test with KM20L2 colon, in the test with RXF 393 renal and with A498 renal was more than 100 µM in each case.
For the molecule `NC(=O)OCc1c(O)c2c(c(O)c1COC(N)=O)C(=O)C=CC2=O`, the TGI in the test on DMS 114 small cell lung, in the test with UO-31 renal, in the test with LXFL 529 NSCLC, in the test on SN12C renal, with EKVX NSCLC and in the test on COLO 205 colon was more than 100 µM each time. The TGI in the test on SK-MEL-2 melanoma is more than 100 µM; in the test on KM20L2 colon it was more than 100 µM; in the test on M19-MEL melanoma, 11.8 µM; in the test with A498 renal, more than 100 µM; in the test on SNB-78 CNS, more than 100 µM.
With `Cc1ccc(CCCC(=O)O)cc1C`, the TGI with UO-31 renal, in the test with SN12C renal, in the test on EKVX NSCLC, with 786-0 renal, in the test on SK-MEL-2 melanoma and in the test with RXF 393 renal was more than 100 µM throughout.
In the case of `CSc1nc(NC2OC(CO)C(O)C(O)C2O)c(N)c(=O)n1C` (centres undefined), the TGI in the test on DMS 114 small cell lung, with UO-31 renal, in the test on SN12C renal, in the test with EKVX NSCLC, in the test on COLO 205 colon and in the test on SK-MEL-2 melanoma was more than 100 µM in each case. Also, the TGI with KM20L2 colon, in the test on RXF 393 renal, with M19-MEL melanoma, with A498 renal and in the test on SNB-78 CNS was more than 100 µM each time.
With `O=C1c2ccccc2-c2ccc(N(Cc3ccc(Br)cc3)Cc3ccc(Br)cc3)cc21`, the TGI in the test with UO-31 renal, in the test on SN12C renal, with EKVX NSCLC, in the test with 786-0 renal, in the test on COLO 205 colon and in the test on SK-MEL-2 melanoma was more than 100 µM each time. The TGI in the test with RXF 393 renal and with A498 renal was more than 100 µM throughout.
For the molecule `CCCCCCCCCCCCCCCc1ccc(C(=O)C[n+]2ccccc2)cc1`, the GI50 in the test on SN12C renal was 0.756 µM; in the test on EKVX NSCLC, 1.82 µM; with COLO 205 colon, 0.475 µM; with A498 renal, 1.1 µM. Moreover, the TGI in the test with SN12C renal amounted to 2.13 µM; with EKVX NSCLC it was 8.72 µM; with COLO 205 colon it was 1.67 µM; in the test with A498 renal it was 8.33 µM.
In the case of `CCOC(=O)c1c(C)n(-c2ccc(C)cc2)c2c1cc(O)c1[nH]c3c(c12)CCCC3`, the TGI with UO-31 renal was 27.9 µM; with SN12C renal, more than 100 µM; with EKVX NSCLC, 99.7 µM; in the test with 786-0 renal it was 37.1 µM; with COLO 205 colon, more than 100 µM; in the test on SK-MEL-2 melanoma, 33.7 µM. Moreover, the TGI was determined as 27 µM in the test on RXF 393 renal and 56.2 µM with A498 renal.
As to `O=C(c1no[n+]([O-])c1C(=O)c1csc2ccccc12)c1csc2ccccc12`, the TGI in the test on UO-31 renal is 1.02 µM; in the test with SN12C renal, 12.1 µM; with EKVX NSCLC it was 12.5 µM; in the test on 786-0 renal it was 0.713 µM; in the test on COLO 205 colon, 9 µM; in the test on SK-MEL-2 melanoma it was 20.7 µM. Moreover, the TGI with RXF 393 renal was found to be 19.4 µM; in the test with A498 renal, 29.3 µM.
On to `COc1ccc(C2C(Cl)C(=O)N2NC(=O)c2ccc(NC(C)=O)cc2)cc1OC` (centres undefined), for which the TGI with UO-31 renal, with LXFL 529 NSCLC, in the test with COLO 205 colon, in the test on SK-MEL-2 melanoma and in the test with M19-MEL melanoma was more than 100 µM each time.
Turning to `CNC1=C(C)C(=O)C2=C(C1=O)C(COC(N)=O)C1(OC)C3NC3CN21` (centres undefined), the TGI is 7.4 µM in the test with UO-31 renal; more than 100 µM in the test with EKVX NSCLC; 1.35 µM in the test on COLO 205 colon; 4.27 µM in the test with SK-MEL-2 melanoma; 2.35 µM with A498 renal.
For the molecule `N=C(N)c1ccc(-c2ccc(-c3ccccc3)o2)cc1`, the GI50 with UO-31 renal was 1.79 µM; in the test on SN12C renal, 2.72 µM; with EKVX NSCLC, 2.61 µM; in the test with COLO 205 colon it was 1.66 µM; in the test with SK-MEL-2 melanoma, 2.14 µM; in the test on A498 renal, 2.85 µM. For the same molecule, the TGI in the test with UO-31 renal was found to be 3.53 µM; in the test on SN12C renal, 7.61 µM; in the test on EKVX NSCLC it was 11.8 µM; in the test with COLO 205 colon, 3.42 µM; in the test with SK-MEL-2 melanoma it was 3.98 µM; with A498 renal, 9.46 µM.
For `NC(N)=NCCCS(=O)(=O)Nc1ccc(Nc2c3ccccc3nc3cc([N+](=O)[O-])ccc23)cc1`, the TGI was 28.8 µM in the test on DMS 114 small cell lung; more than 100 µM with UO-31 renal; 29.9 µM in the test on LXFL 529 NSCLC; 60.9 µM in the test with SN12C renal; 70.7 µM in the test on EKVX NSCLC; 53.2 µM in the test on 786-0 renal. Moreover, the TGI in the test on COLO 205 colon is 56.2 µM; in the test with SK-MEL-2 melanoma, 66.1 µM; in the test with KM20L2 colon, more than 76.2 µM; in the test on RXF 393 renal, 67.2 µM; in the test with M19-MEL melanoma it was 24.1 µM; in the test on A498 renal, 65.8 µM. This molecule came in with a TGI in the test on SNB-78 CNS of more than 63.5 µM.
For the molecule `CC(C)=CCC/C(C)=C/CC/C(C)=C/C(O)c1ccccc1` (centres undefined), the TGI in the test with DMS 114 small cell lung worked out at 39.4 µM; in the test on UO-31 renal, 36.3 µM; in the test with LXFL 529 NSCLC it was 31.8 µM; with SN12C renal, 33.9 µM; in the test on EKVX NSCLC, 34.3 µM; with COLO 205 colon, 35.6 µM. Further, the TGI came out at 34.9 µM in the test with SK-MEL-2 melanoma; 36 µM in the test on KM20L2 colon; 34.6 µM with M19-MEL melanoma; 34.2 µM in the test on A498 renal; 68 µM with SNB-78 CNS.
For `CC(C)c1cccc(C(C)C)c1NC(=S)Nc1ccccc1`, the TGI with DMS 114 small cell lung, in the test with UO-31 renal, in the test on LXFL 529 NSCLC, in the test on SN12C renal, in the test on EKVX NSCLC and in the test with COLO 205 colon was more than 100 µM in each case. Further, the TGI with SK-MEL-2 melanoma, with KM20L2 colon, with RXF 393 renal, in the test with M19-MEL melanoma, in the test with A498 renal and with SNB-78 CNS was more than 100 µM throughout.
Consider `CC(=O)Nc1ccc2c(c1)C(=Nc1ccc(C(=O)O)cc1)c1ccccc1-2`, for which the TGI with UO-31 renal is more than 100 µM; with SN12C renal it was more than 100 µM; in the test on EKVX NSCLC, 84.9 µM; in the test on 786-0 renal it was more than 100 µM; in the test with COLO 205 colon, more than 100 µM; with RXF 393 renal, more than 100 µM. The TGI in the test on A498 renal is more than 100 µM.
On to `COC(=O)c1c(OC(C)=O)ccc2c1c1c(n2Cc2ccccc2)C(=O)c2ccccc2C1=O`, for which the TGI with UO-31 renal is more than 100 µM; in the test on SN12C renal, 37.5 µM; in the test on EKVX NSCLC it was 48.3 µM; in the test with 786-0 renal it was 52.4 µM; in the test on COLO 205 colon, 30.5 µM; in the test on SK-MEL-2 melanoma, 36.2 µM. In addition, the TGI turned out to be 37.8 µM with RXF 393 renal and 43.6 µM with A498 renal.
Turning to `CCN(CC)CCSc1nc2c([N+](=O)[O-])cccc2[nH]1`, the TGI in the test with DMS 114 small cell lung, in the test on LXFL 529 NSCLC, in the test with SN12C renal, in the test on EKVX NSCLC, with COLO 205 colon and with RXF 393 renal was more than 100 µM each time. Also, the TGI in the test on M19-MEL melanoma and with SNB-78 CNS was more than 100 µM each time.
On to `N=C1SCCS1`, for which the TGI in the test with DMS 114 small cell lung, in the test with UO-31 renal, in the test with LXFL 529 NSCLC, in the test with SN12C renal, in the test with EKVX NSCLC and in the test with 786-0 renal was more than 100 µM each time. For the same molecule, the TGI with COLO 205 colon, with SK-MEL-2 melanoma, in the test with KM20L2 colon, in the test on M19-MEL melanoma and in the test on SNB-78 CNS was more than 100 µM each time.
For the molecule `Nc1cccc2cc(S(=O)(=O)Nc3ccc(C(=O)O)cc3)ccc12`, the TGI in the test on UO-31 renal, in the test with SN12C renal, in the test with EKVX NSCLC, in the test on 786-0 renal, in the test with COLO 205 colon and in the test on SK-MEL-2 melanoma was more than 100 µM in each case. Moreover, the TGI in the test with RXF 393 renal and in the test on A498 renal was more than 100 µM each time.
